Values joined by “and” are separate entries in the source; they are usually repeats but may differ in a detail not shown here. Equal values may be shown once. Numbered stars: 1 amine (or outer) side, 2 acyl side, 3 side chain; on linkers, the order of the positions; unused ones are H or OH. Square brackets hold non-standard residues; d marks the D form. Peptide text beside a SMILES is read from it. azaTyr = O=C(N(Cc1ccc(O)cc1)N[*:1])[*:2]
What was measured:
CD36 = biological target: T1, CD36 (Rattus norvegicus, UniProt Q07969); assay: Competition binding of photoactivatable [125I]-Tyr-Bpa-Ala-Hexarelin to CD36 in rat cardiac membranes; conditions: competition with [125I]-Tyr-Bpa-Ala-Hexarelin, rat heart membranes; for IC50: read-out: IC50 (μM), binding affinity for CD36
T1 construct: from tissue; host or cells: Heart (cardiac membranes) of Sprague Dawley rats from Charles River
T1 sequence (Q07969 whole entry): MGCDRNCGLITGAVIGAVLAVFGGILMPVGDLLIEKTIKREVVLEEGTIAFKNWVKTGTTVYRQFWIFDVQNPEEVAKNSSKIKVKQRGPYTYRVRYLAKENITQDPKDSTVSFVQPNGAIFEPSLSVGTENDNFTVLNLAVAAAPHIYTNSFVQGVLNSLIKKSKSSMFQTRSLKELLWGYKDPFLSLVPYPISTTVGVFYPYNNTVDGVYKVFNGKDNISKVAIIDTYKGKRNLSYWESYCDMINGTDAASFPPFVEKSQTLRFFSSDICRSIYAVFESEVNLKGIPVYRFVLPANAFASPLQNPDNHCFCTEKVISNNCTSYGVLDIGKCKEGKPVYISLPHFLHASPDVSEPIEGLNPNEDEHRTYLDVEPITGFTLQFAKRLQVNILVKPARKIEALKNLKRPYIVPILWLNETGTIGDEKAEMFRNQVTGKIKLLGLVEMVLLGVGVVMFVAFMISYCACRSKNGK
Protocol: Hearts from Sprague Dawley rats (300-325 g) from Charles River were cut into small pieces and homogenized with a Polytron® at low speed, 3×15 sec in buffer A (10 mM NaHCO3, 5 mM NaN3, 10 μM Pefabloc®, 0.1 μM Aprotinin, 1 μM Pepstatin A, 1 μM Leupeptin, pH 7.0) at a concentration of […] of tissue. The homogenate was first centrifuged at 8,700×g for 20 min in a Sorvall® centrifuge and the supernatant was collected on ice. The pellet was resuspended and re-homogenized with a Glass-Teflon® Potter by 5 strokes. This homogenate was recentrifuged at 8,700×g for 10 min and the resulting supernatant was combined with the first collected supernatant. The combined supernatant was centrifuged at 35,000×g for 20 min. The pellet fraction obtained was resuspended in Buffer B (20 mM Tris-maleate, 0.6M KCl, pH 6.8) in a volume corresponding to 20 mL/g of fresh tissue using a glass homogenizer with a Teflon pestle. The resulting suspension was centrifuged again at 35,000×g for 60 min. and the pellet fraction obtained was resuspended in Buffer C (10 mM Tris/HCl buffer pH 7.4) and thoroughly homogenized in a glass with a Teflon® pestle (20 ml/g of fresh tissue). This suspension was submitted to another centrifugation at 35,000×g for 60 min. The collected pellet was resuspended in 50 mM Tris/HCl buffer pH 7.4) containing 2 mM EGTA in a final volume corresponding to 1-2 mL/g of fresh tissue. The membrane preparation obtained was frozen at −80° C. Protein concentration was determined using the bicinchoninic acid (BCA) method, employing BSA as standard.
The reaction was started by adding 3 nmol of H2O2 for 5 min at room temperature. This step was repeated twice with a period of 5 min of incubation for each addition. The reaction was stopped by diluting the mixture with 1 mL of 0.1% TFA. The radioiodinated peptide was purified by HPLC on a reverse-phase Vydac® C18 column with a 60-min linear gradient from 20% to 50% of acetonitrile in 0.1% TFA. The eluted radiolabelled tracer was collected, aliquoted (50×10^6 cpm/fraction) and stored at −80° C.
Binding studies with MPE-298 were done with increasing concentrations from 0.01 to 5 μM of competition ligands. Nonspecific binding was defined as binding not displaced by 50 μM corresponding peptide. All peptide containing solutions were diluted in Buffer B. Buffer A and B were degassed under vacuum, and used in capped tubes in order to minimize lipid peroxidation. Before the incubation period, all tubes were put under a low flow of nitrogen. All material was kept on ice and the binding assay was performed in darkness. After an incubation period of 60 min at 22° C. (vortexing every 15 min), membranes were submitted to irradiation with UV lamps (365 nm) for 15 min at 4° C. After centrifugation at 12,000×g for 15 minutes, the pellets were resuspended in 40 μl of sample buffer (62 mM Tris-HCl, pH 6.8, 2% SDS, 10% glycerol, 15% 2-mercaptoethanol, and 0.05% bromophenol blue), and boiled for 5 min prior to being subjected to electrophoresis. Proteins (50 μg/40 μl) were separated on a 7.5% SDS-PAGE Bio-Rad® Mini-Protean electrophoresis system (150 V for 1 h). The gels resulting from SDS/PAGE were fixed, colored in Coomassie Brilliant Blue R-250, dried, exposed to a storage phosphor intensifying screen (Amersham Biosciences), and analysed using a Typhoon® PhosphorImager (GE Healthcare Life Sciences®). […] The curves were analysed by using software package (Graphpad® prism version 7.0).

[1] = test system: R-FSL-1 (TLR2 agonist)-induced NO production in RAW macrophage cell line; assay: Nitric oxide (NO) production induced by TLR2 agonist R-FSL-1 in RAW macrophage cell line; format: cell-based, murine; conditions: RAW macrophages, at the concentration tested (10^−6 or 10^−7 M), FIGS. 4A to 4F
Protocol: The murine RAW1 macrophage cell line was obtained from American Type Cell Collection (ATCC #TIB-71), seeded at 1.5×10^5 cells/well in Dulbecco's Modified Eagle's medium (DMEM) containing 100 U/mL of penicillin (Pen) and 100 μg/mL of streptomycin (Strep) on a 48-well plate (Costar® #3548), and incubated at 37° C. with 5% CO2. After 2 h, the cell culture medium of adhered cells was removed and replaced by DMEM-Pen/Strep medium containing 0.2% of bovine serum albumin (BSA), and supplemented with the cyclic peptides at a concentration of 10^−6 or 10^−7 M. MPE-001 (DBG178, His-D-Trp-Ala-AzaTyr-D-Phe-Lys-NH2) and [azaLys^6]-GHRP-6 (His-D-Trp-Ala-Trp-D-Phe-azaLys-NH2, negative control) at 10^−6 M were used as positive and negative controls, respectively. After 1 h pre-incubation, the cells were stimulated overnight using the TLR2 ligand fibroblast-stimulating lipopeptide (R-FSL-1) (Invivogen® #L7022) at a concentration of 300 ng/mL. Supernatants were then collected for nitrite production analysis by fluorescence using 2,3-diaminonaphthalene (DAN). Briefly, 25 μL of sample was incubated with 0.5 μg of DAN in a 100 μL final volume of phosphate buffer (50 mM, pH 7.5) at room temperature in the dark. After 15 min, the reaction was stopped with 20 μL of NaOH (2.8N) and the plate was read using a fluorescence plate reader (TECAN® Safire, λexc 365 nm and λem 430 nm).

Row | SMILES | IC50 (CD36) | binding to CD36 (in words) (CD36) | suppression of R-FSL-1-mediated NO production [1]
1 | C=CCN1CC#CCN(NC(=O)C(C)N)C(=O)N[C@H](Cc2c[nH]c3ccccc23)C(=O)N[C@@H](C)C(=O)N[C@@H](Cc2c[nH]c3ccccc23)C(=O)N[C@H](Cc2ccccc2)C(=O)N[C@H](C(N)=O)CCCC1 (stereo in doubt) [MPE-202] | 14.3 µM |  | 
2 | C=CCN1CC#CCN(NC(=O)C(N)C(C)C)C(=O)N[C@H](Cc2c[nH]c3ccccc23)C(=O)N[C@@H](C)C(=O)N[C@@H](Cc2c[nH]c3ccccc23)C(=O)N[C@H](Cc2ccccc2)C(=O)N[C@H](C(N)=O)CCCC1 (stereo in doubt) [MPE-203] | 2.26 µM |  | 
3 | C[C@H](NC(=O)[C@@H](Cc1c[nH]c2ccccc12)NC(=O)[C@@H](N)Cc1c[nH]cn1)C(=O)NN(Cc1ccc(O)cc1)C(=O)N[C@H](Cc1ccccc1)C(=O)N[C@@H](CCCCN)C(N)=O [MPE-001, His-D-Trp-Ala-AzaTyr-D-Phe-Lys-NH2, reference compound] (H-H[dW]A[azaTyr][dF]K-NH2) | ~2 µM |  | 
4 | C=CCN1CC#CCC(NC(=O)[C@H](C)N)C(=O)N[C@H](Cc2c[nH]c3ccccc23)C(=O)N[C@@H](C)C(=O)N[C@@H](Cc2c[nH]c3ccccc23)C(=O)N[C@H](Cc2ccccc2)C(=O)N[C@H](C(N)=O)CCC1 (stereo partly shown) [MPE-048] | 13.7 µM | detectable binding | 
5 | C=CCN1CC#CC[C@@H](NC(=O)[C@H](C)N)C(=O)N[C@H](Cc2c[nH]c3ccccc23)C(=O)N[C@@H](C)C(=O)N[C@@H](Cc2c[nH]c3ccccc23)C(=O)N[C@H](Cc2ccccc2)C(=O)N[C@H](C(N)=O)CCCC1 [MPE-074] | 1.04 µM | detectable binding | 
6 | C=CCN1CC#CC[C@H](NC(=O)[C@H](C)N)C(=O)N[C@H](Cc2c[nH]c3ccccc23)C(=O)N[C@@H](C)C(=O)N[C@@H](Cc2c[nH]c3ccccc23)C(=O)N[C@H](Cc2ccccc2)C(=O)N[C@H](C(N)=O)CCCC1 [MPE-075] | 0.66 µM | detectable binding | significant suppression
7 | C=CCN1CC#CC[C@@H](NC(=O)[C@H](C)N)C(=O)N[C@@H](C)C(=O)N[C@@H](Cc2c[nH]c3ccccc23)C(=O)N[C@H](Cc2ccccc2)C(=O)N[C@H](C(N)=O)CCCC1 [MPE-110] | 3.32 µM | detectable binding | 
8 | C=CCN1CC#CC[C@H](NC(=O)[C@H](C)N)C(=O)N[C@@H](C)C(=O)N[C@@H](Cc2c[nH]c3ccccc23)C(=O)N[C@H](Cc2ccccc2)C(=O)N[C@H](C(N)=O)CCCC1 [MPE-111] | 0.24 µM | detectable binding | significant suppression
9 | C=CCN1CC#CCN(NC(=O)[C@@H](C)N)C(=O)N[C@H](Cc2c[nH]c3ccccc23)C(=O)N[C@@H](C)C(=O)NN(Cc2ccc(OC)cc2)C(=O)N[C@H](Cc2ccccc2)C(=O)N[C@H](C(N)=O)CCCC1 [MPE-189] | 3.26 µM | detectable binding | significant suppression
10 | C=CCN1CC#CCN(NC(=O)[C@H](C)N)C(=O)N[C@H](Cc2c[nH]c3ccccc23)C(=O)N[C@@H](C)C(=O)N[C@H](C(=O)N[C@H](Cc2ccccc2)C(=O)N[C@@H](CCCCN)C(N)=O)CCCC1 [MPE-300] | 10 µM and 10.6 µM |  | significant suppression
11 | C=CCN1CC#CCN(NC(=O)[C@H](C)N)S(=O)(=O)N[C@H](Cc2c[nH]c3ccccc23)C(=O)N[C@@H](C)C(=O)N[C@@H](Cc2c[nH]c3ccccc23)C(=O)N[C@H](Cc2ccccc2)C(=O)N[C@H](C(N)=O)CCCC1 [MPE-400] | 11.6 µM | detectable binding | 

Source: patent US11879021B2, “Cyclic peptides and uses thereof” (UNIVERSITÉ DE MONTRÉAL, priority 2016, dated 2024)
